# What was measured:
# [1] = Elimination rate constant from central compartment in iv dosed lymphoma patient (6 patients) by two-compartmental open model; conditions: human, in vivo
# [2] = First order rate constant for slow elimination phase in iv dosed lymphoma patient (6 patients) by two-compartmental open model; conditions: human, in vivo
# clinical [3] = conditions: human, in vivo, iv, 11.3 mg/kg
# Description: Clearance in lymphoma patient at 11.3 mg/kg, iv by one compartment open model
# [4] = Apparent volume of distribution during terminal log-linear elimination phase in iv dosed lymphoma patient (6 patients) by two-compartmental open model; conditions: human, in vivo
# [5] = Clearance in po dosed lymphoma patient (7 patients) by one compartment open model; conditions: human, in vivo
# [6] = Apparent volume of distribution of central compartment in iv dosed lymphoma patient (6 patients) by two-compartmental open model; conditions: human, in vivo
# [7] = Extraction ratio in lymphoma patient (7 patients); conditions: human, in vivo
# [8] = Renal clearance in lymphoma patient (7 patients); conditions: human, in vivo
# [9] = Drug excretion in po dosed lymphoma patient (7 patients) assessed as unchanged parent compound in urine; conditions: human
# clinical [10] = conditions: human, in vivo, iv, 11.3 mg/kg; remark: listed apart in the source
# Description: Elimination rate constant in lymphoma patient at 11.3 mg/kg, iv by one compartment open model
# clinical [11] = conditions: human, in vivo, iv, 11.3 mg/kg; remark: listed apart in the source
# Description: Volume of distribution in lymphoma patient at 11.3 mg/kg, iv by one compartment open model
# [12] = Elimination rate constant in po dosed lymphoma patient (7 patients) by one compartment open model; conditions: human, in vivo
# [13] = Half life in po dosed lymphoma patient (7 patients) by one compartment open model; conditions: human, in vivo
# clinical [14] = conditions: human, plasma, iv, 11.3 mg/kg
# clinical [15] = conditions: human, in vivo, iv, 11.3 mg/kg; remark: listed apart in the source
# Description: Elimination half life in lymphoma patient at 11.3 mg/kg, iv by one compartment open model
structure (smiles),measurement,setting,value
O=P1(N(CCCl)CCCl)NCCCO1 (stereo not given) [CYCLOPHOSPHAMIDE ANHYDROUS],k el,[1],5.56e-05 s⁻¹
same,k el,[2],2.53e-05 s⁻¹
same,clearance,clinical [3],1.62 mL/min/kg
same,Vd,[4],0.71 L/kg
same,CL/F,[5],1.55 mL/min/kg
same,Vd,[6],0.38 L/kg
same,hepatic extraction ratio,[7],0.25
same,CL renal,[8],0.08 mL/min/kg
same,dose excreted,[9],1.8%
same,k el,clinical [10],3e-05 s⁻¹
same,Vd,clinical [11],0.9 L/kg
same,k el,[12],6.03e-05 s⁻¹
same,half-life,[13],3.93 h
same,C0,clinical [14],12500 ng/mL
same,half-life,clinical [15],6.42 h

# Reference: ChEMBL document CHEMBL3785022, “Pharmacokinetics of cyclophosphamide and alkylating activity in man after intravenous and oral administration” (Br J Clin Pharmacol, 1979)
